Test results published in the supplement of paper PMC10307832.

How the values were obtained:
Experiment in all cases: relative viability (nuclei count vs DMSO), 5 days (fraction); higher = more cells survive
[1] = compound: C/C(=N\NC(=S)N1CCC1)/C2=CC=CC=N2 + Cc1nc(NC(=O)N2CCC[C@H]2C(N)=O)sc1-c1ccnc(C(C)(C)C(F)(F)F)c1 [Alpelisib] (partner 2 µM)
Summary of the method: (§1)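 Five library-drug doses in √10 steps were combined with a fixed anchor-drug dose, or a single drug was given alone, by pin tool to lung cancer cell lines in 1536-well plates the day after seeding. Nuclei were stained and counted after 5 days. Relative viability is the nuclei count in treated wells over that in vehicle wells, taken as the median of duplicate plates.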

[2] = compound: C/C(=N\NC(=S)N1CCC1)/C2=CC=CC=N2 + Nc1ncn([C@H]2C[C@H](O)[C@@H](CO)O2)c(=O)n1 [Decitabine] (partner 2 µM)
Summary of the method: as §1

[3] = compound: C/C(=N\NC(=S)N1CCC1)/C2=CC=CC=N2 + CS(=O)(=O)N1CCN(Cc2cc3nc(-c4cccc5[nH]ncc45)nc(N4CCOCC4)c3s2)CC1 [Pictilisib] (partner 1 µM)
Summary of the method: as §1

[4] = compound: C/C(=N\NC(=S)N1CCC1)/C2=CC=CC=N2 + C[C@]1(O)C[C@@H](c2nc(-c3ccc4ccc(-c5ccccc5)nc4c3)c3c(N)nccn32)C1 [Linsitinib] (partner 1 µM)
Summary of the method: as §1

Cell Line	relative viability ([1]; first compound 0.05 µM)	relative viability ([1]; first compound 0.1581 µM)	relative viability ([1]; first compound 0.5 µM)	relative viability ([1]; first compound 1.581 µM)	relative viability ([1]; first compound 5 µM)	relative viability ([2]; first compound 0.05 µM)	relative viability ([2]; first compound 0.1581 µM)	relative viability ([2]; first compound 0.5 µM)	relative viability ([2]; first compound 1.581 µM)	relative viability ([2]; first compound 5 µM)	relative viability ([3]; first compound 0.05 µM)	relative viability ([3]; first compound 0.1581 µM)	relative viability ([3]; first compound 0.5 µM)	relative viability ([3]; first compound 1.581 µM)	relative viability ([3]; first compound 5 µM)	relative viability ([4]; first compound 0.05 µM)	relative viability ([4]; first compound 0.1581 µM)	relative viability ([4]; first compound 0.5 µM)	relative viability ([4]; first compound 1.581 µM)	relative viability ([4]; first compound 5 µM)
COR-L 105	0.301	0.266	0.275	0.222	0.217	0.31	0.413	0.327	0.306	0.313	0.318	0.346	0.325	0.279	0.254	0.343	0.265	0.265	0.332	0.261
LK-2	0.182	0.28	0.283	0.176	0.243	0.0805	0.111	0.0805	0.0894	0.0937	0.146	0.263	0.268	0.198	0.238	0.14	0.154	0.18	0.114	0.125
NCI-H727	0.191	0.152	0.19	0.175	0.147	0.406	0.366	0.394	0.398	0.466	0.236	0.195	0.154	0.15	0.139	0.203	0.115	0.213	0.222	0.238
RERF-LC-KJ	0.212	0.234	0.23	0.205	0.256	0.234	0.235	0.215	0.283	0.247	0.19	0.17	0.173	0.18	0.191	0.233	0.253	0.227	0.243	0.229
NCI-H2023	0.0758	0.0838	0.0704	0.0784	0.0669	0.0753	0.0791	0.067	0.0569	0.0755	0.064	0.0997	0.084	0.0661	0.0904	0.1	0.0863	0.0724	0.0807	0.0886
NCI-H322M	0.318	0.844	0.186	0.258	0.254	0.353	0.413	0.418	0.47	0.455	0.23	0.38	0.275	0.263	0.287	0.291	0.876	0.197	0.245	0.319
NCI-H1666	0.198	0.208	0.23	0.212	0.224	0.367	0.368	0.411	0.329	0.375	0.158	0.22	0.234	0.176	0.2	0.213	0.244	0.231	0.22	0.231
NCI-H1648	–	–	–	–	–	0.274	0.248	0.3	0.338	0.353	–	–	–	–	–	–	–	–	–	–
NCI-H2087	0.24	0.196	0.246	0.141	0.151	0.136	0.0973	0.107	0.103	0.0802	0.302	0.219	0.258	0.205	0.153	0.305	0.37	0.301	0.244	0.178
LU99A	0.174	0.0993	0.112	0.142	0.135	0.222	0.624	0.171	0.162	0.173	0.12	0.106	0.0914	0.146	0.122	0.189	0.132	0.117	0.155	0.172
HCC-366	0.0241	0.013	0.0152	0.0166	0.0137	0.103	0.0378	0.0365	0.035	0.0275	0.0297	0.0246	0.029	0.0344	0.0355	0.0558	0.0147	0.0179	0.0206	0.0189
EKVX	0.119	0.124	0.111	0.13	0.151	0.15	0.138	0.13	0.138	0.16	0.113	0.127	0.115	0.107	0.124	0.141	0.122	0.0907	0.135	0.141
NCI-H522	–	–	–	–	–	0.402	0.456	0.333	0.345	0.385	–	–	–	–	–	–	–	–	–	–
NCI-H1755	0.471	0.834	0.172	0.201	0.187	0.503	0.664	0.311	0.271	0.346	0.171	0.168	0.162	0.157	0.136	0.528	0.959	0.194	0.22	0.215
NCI-H647	0.135	0.0873	0.114	0.0898	0.0916	0.0887	0.123	0.117	0.0803	0.0922	0.0857	0.0882	0.104	0.0844	0.15	0.148	0.103	0.159	0.0971	0.0901
LC-2-ad	0.126	0.109	0.107	0.104	0.0953	0.267	0.244	0.204	0.227	0.22	0.141	0.106	0.103	0.103	0.117	0.131	0.155	0.11	0.099	0.146
NCI-H1793	0.245	0.179	0.169	0.168	0.191	0.276	0.193	0.218	0.138	0.166	0.195	0.203	0.163	0.172	0.15	0.22	0.233	0.132	0.142	0.167
HCC-827	0.556	1.01	0.264	0.279	0.186	0.253	0.244	0.237	0.182	0.185	0.6	0.541	0.322	0.382	0.388	0.716	0.968	0.338	0.3	0.187
HCC-78	0.257	0.252	0.177	0.153	0.158	0.453	0.413	0.407	0.244	0.22	0.184	0.176	0.119	0.163	0.153	0.299	0.251	0.189	0.161	0.175

Cell Line	relative viability ([1]; first compound 0.05 µM)	relative viability ([1]; first compound 0.1581 µM)	relative viability ([1]; first compound 0.5 µM)	relative viability ([1]; first compound 1.581 µM)	relative viability ([1]; first compound 5 µM)	relative viability ([2]; first compound 0.05 µM)	relative viability ([2]; first compound 0.1581 µM)	relative viability ([2]; first compound 0.5 µM)	relative viability ([2]; first compound 1.581 µM)	relative viability ([2]; first compound 5 µM)	relative viability ([3]; first compound 0.05 µM)	relative viability ([3]; first compound 0.1581 µM)	relative viability ([3]; first compound 0.5 µM)	relative viability ([3]; first compound 1.581 µM)	relative viability ([3]; first compound 5 µM)	relative viability ([4]; first compound 0.05 µM)	relative viability ([4]; first compound 0.1581 µM)	relative viability ([4]; first compound 0.5 µM)	relative viability ([4]; first compound 1.581 µM)	relative viability ([4]; first compound 5 µM)
NCI-H2085	0.288	0.27	0.314	0.282	0.272	0.255	0.324	0.358	0.309	0.376	0.27	0.301	0.353	0.326	0.296	0.222	0.307	0.242	0.223	0.215
PC-14	0.108	0.0754	0.067	0.0556	0.0881	0.0702	0.088	0.0592	0.0503	0.0468	0.0639	0.0478	0.0584	0.0411	0.0523	0.0952	0.125	0.12	0.0874	0.117
NCI-H2342	–	–	–	–	–	0.318	0.306	0.265	0.276	0.25	–	–	–	–	–	–	–	–	–	–
A-427	0.136	0.739	0.142	0.101	0.11	0.182	0.214	0.194	0.171	0.17	0.109	0.142	0.129	0.116	0.125	0.18	0.687	0.148	0.157	0.139
H3255	0.242	0.323	0.221	0.181	0.214	0.211	0.231	0.24	0.209	0.228	0.244	0.23	0.192	0.222	0.203	0.278	0.269	0.276	0.197	0.21
HCC-44	0.473	0.143	0.178	0.162	0.218	0.559	0.544	0.52	0.551	0.428	0.341	0.142	0.125	0.149	0.217	0.553	0.141	0.143	0.154	0.183
NCI-H1734	0.169	0.185	0.147	0.135	0.151	0.136	0.152	0.132	0.123	0.102	0.15	0.151	0.149	0.115	0.139	0.141	0.183	0.16	0.142	0.131
NCI-H2228	0.154	0.18	0.227	0.124	0.147	–	–	–	–	–	0.148	0.285	0.168	0.163	0.12	0.179	0.273	0.233	0.144	0.213
ABC-1	0.371	0.226	0.234	0.27	0.281	0.343	0.373	0.385	0.381	0.287	0.305	0.334	0.24	0.222	0.269	0.247	0.239	0.24	0.221	0.207
COR-L23	0.113	0.123	0.097	0.0558	0.0865	0.156	0.149	0.161	0.106	0.0995	0.134	0.0963	0.103	0.0639	0.0663	0.129	0.11	0.106	0.0712	0.0637
NCI-H661	0.153	0.268	0.145	0.172	0.202	0.274	0.26	0.218	0.236	0.232	0.222	0.239	0.232	0.237	0.21	0.186	0.218	0.191	0.196	0.212
ChaGo-K-1	–	–	–	–	–	0.159	0.321	0.147	0.174	0.178	0.233	0.392	0.232	0.237	0.293	–	–	–	–	–
NCI-H1650	–	–	–	–	–	0.189	0.141	0.141	0.206	0.186	0.17	0.214	0.186	0.165	0.193	–	–	–	–	–
EBC-1	0.191	0.192	0.166	0.152	0.147	–	–	–	–	–	0.164	0.205	0.187	0.116	0.14	0.13	0.19	0.137	0.0985	0.11
NCI-H1703	0.0878	0.0975	0.132	0.112	0.122	–	–	–	–	–	0.102	0.0942	0.162	0.159	0.167	0.0702	0.0548	0.068	0.0799	0.121
CAL-12T	0.148	0.146	0.126	0.127	0.121	–	–	–	–	–	0.168	0.198	0.138	0.167	0.178	0.167	0.165	0.13	0.16	0.142
NCI-H1563	0.528	0.493	0.492	0.573	0.596	–	–	–	–	–	0.593	0.519	0.614	0.561	0.584	0.684	0.541	0.563	0.612	0.629
NCI-H2170	0.747	0.731	0.177	0.173	0.17	0.374	0.434	0.22	0.199	0.14	0.158	0.188	0.178	0.192	0.167	–	–	–	–	–
